Results from publication PMC2726284, “Electron Crystallography Reveals Plasticity within the Drug Binding Site of the Small Multidrug Transporter EmrE” (Journal of Molecular Biology, 2008).

How the values were obtained:
EmrE [1] = molecular target: T1, EmrE (Escherichia coli, UniProt P23895); test: [3H]TPP+ radioligand competition; exchange in 2-D crystals and cryo-EM projection map; format: binding
T1 construct: 6xHis-tagged EmrE, purified, detergent (DDM)-solubilized

EmrE [2] = molecular target: T1, EmrE; test: [3H]TPP+ radioligand competition; cryo-EM projection structure of 2-D co-crystals at […] Å; format: binding
EmrE [3] = molecular target: T1, EmrE; test: [3H]TPP+ radioligand binding to solubilized EmrE and 2-D crystals; settings: cited from earlier work

T1 sequence (P23895 whole entry): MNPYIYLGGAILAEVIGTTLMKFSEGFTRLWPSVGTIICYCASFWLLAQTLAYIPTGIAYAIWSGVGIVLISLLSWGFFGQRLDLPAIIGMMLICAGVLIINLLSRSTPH

`Cc1cc(N)c2ccccc2[n+]1CCCCCCCCCC[n+]1c(C)cc(N)c2ccccc21` [DQ^2+, dequalinium] gave a Ki (EmrE [1]) of 83 ± 9 nM.
Molecule `CC[n+]1c(-c2ccccc2)c2cc(N)ccc2c2ccc(N)cc21` [Eth^+, ethidium] has a Ki (EmrE [2]) of 1000 ± 900 nM.
Work on `CC[N+](C)(CC)CCC[n+]1c(-c2ccccc2)c2cc(N)ccc2c2ccc(N)cc21` [PP^2+, propidium] yielded a Ki (EmrE [1]) of 19 ± 4 nM.
For `c1ccc([P+](c2ccccc2)(c2ccccc2)c2ccccc2)cc1` [TPP^+, tetraphenylphosphonium], the Kd (EmrE [3]) is given as 2.4 nM.
